Tests used:
Assay in all cases: Kinase panel radiometric filter binding (33P-ATP)
Assay type in all cases: biochemical
Set-up in all cases: dose or concentration left out as unconfirmed
PKBa = PKBa (Homo sapiens, UniProt P31749)
Procedure: (§1) Table S4: AMPKA kinase activity data (ADP-Glo assay)
(§2) Compound pIC50 (Fold selectivity
(§3) Table S5. Kinase selectivity screening for 9 and 24 at 1 µM against a general kinase panel of 140 targets
(§4) in radiometric filter binding assay using 33P-γ−ATP at the MRC PPU International Centre for Kinase
(§5) Profiling, University of Dundee. pIC50 values were determined for compounds with <20% activity
(§6) Kinase activity s.d. pIC50 activity s.d. pIC50

TESK1 = TESK1 (Homo sapiens, UniProt Q15569)
Procedure: as §1, §2, §3, §4, §5, §6

PLK1 = PLK1 (Homo sapiens, UniProt P53350)
Procedure: as §1, §2, §3, §4, §5, §6

TIE2 = TIE2 (Homo sapiens, UniProt Q02763)
Procedure: as §1, §2, §3, §4, §5, §6

SIK3 = SIK3 (Homo sapiens, UniProt Q9Y2K2)
Procedure: as §1, §2, §3, §4, §5, §6

MNK2 = MNK2 (Homo sapiens, UniProt Q9HBH9)
Procedure: as §1, §2, §3, §4, §5, §6

CAMK1 = CAMK1 (Homo sapiens, UniProt Q14012)
Procedure: as §1, §2, §3, §4, §5, §6

Lck = Lck (Homo sapiens, UniProt P06239)
Lck, sequence (P06239 whole entry): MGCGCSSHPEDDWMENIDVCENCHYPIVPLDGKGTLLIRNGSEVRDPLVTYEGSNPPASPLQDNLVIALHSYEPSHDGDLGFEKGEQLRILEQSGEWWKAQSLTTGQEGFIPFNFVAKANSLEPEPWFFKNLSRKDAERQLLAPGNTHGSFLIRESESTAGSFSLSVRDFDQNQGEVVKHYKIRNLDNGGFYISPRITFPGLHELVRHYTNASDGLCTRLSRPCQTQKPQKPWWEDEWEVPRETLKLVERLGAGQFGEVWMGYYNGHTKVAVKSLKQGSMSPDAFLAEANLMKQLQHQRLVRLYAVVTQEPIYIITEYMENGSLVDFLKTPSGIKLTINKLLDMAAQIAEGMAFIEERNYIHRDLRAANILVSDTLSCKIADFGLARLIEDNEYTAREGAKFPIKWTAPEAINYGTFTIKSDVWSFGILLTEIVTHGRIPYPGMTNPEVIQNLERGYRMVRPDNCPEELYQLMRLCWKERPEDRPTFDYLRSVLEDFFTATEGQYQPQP
Procedure: as §1, §2, §3, §4, §5, §6

MAPKAP-K3 = MAPKAP-K3 (Homo sapiens, UniProt Q16644)
MAPKAP-K3, sequence (Q16644 whole entry): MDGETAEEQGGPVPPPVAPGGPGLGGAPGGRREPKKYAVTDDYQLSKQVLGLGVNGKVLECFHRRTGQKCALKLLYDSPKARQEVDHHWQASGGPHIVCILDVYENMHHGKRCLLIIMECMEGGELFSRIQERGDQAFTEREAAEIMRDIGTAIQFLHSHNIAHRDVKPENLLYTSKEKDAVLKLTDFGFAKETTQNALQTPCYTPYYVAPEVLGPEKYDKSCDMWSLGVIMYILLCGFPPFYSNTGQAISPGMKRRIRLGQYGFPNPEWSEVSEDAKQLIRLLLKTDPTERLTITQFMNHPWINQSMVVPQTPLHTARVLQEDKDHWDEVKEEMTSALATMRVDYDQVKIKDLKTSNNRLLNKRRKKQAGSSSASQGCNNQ
Procedure: as §1, §2, §3, §4, §5, §6

ABL = ABL (Homo sapiens, UniProt P00519)
Procedure: as §1, §2, §3, §4, §5, §6

EIF2AK3 = EIF2AK3 (Homo sapiens, UniProt Q9NZJ5)
Procedure: as §1, §2, §3, §4, §5, §6

ERK1 = ERK1 (Homo sapiens, UniProt P27361)
Procedure: as §1, §2, §3, §4, §5, §6

TAO1 = TAO1 (Homo sapiens, UniProt Q7L7X3)
Procedure: as §1, §2, §3, §4, §5, §6

DYRK1A = DYRK1A (Homo sapiens, UniProt Q13627)
Procedure: as §1, §2, §3, §4, §5, §6

S6K1 = S6K1 (Homo sapiens, UniProt P23443)
Procedure: as §1, §2, §3, §4, §5, §6

MST4 = MST4 (Homo sapiens, UniProt Q9P289)
MST4, sequence (Q9P289 whole entry): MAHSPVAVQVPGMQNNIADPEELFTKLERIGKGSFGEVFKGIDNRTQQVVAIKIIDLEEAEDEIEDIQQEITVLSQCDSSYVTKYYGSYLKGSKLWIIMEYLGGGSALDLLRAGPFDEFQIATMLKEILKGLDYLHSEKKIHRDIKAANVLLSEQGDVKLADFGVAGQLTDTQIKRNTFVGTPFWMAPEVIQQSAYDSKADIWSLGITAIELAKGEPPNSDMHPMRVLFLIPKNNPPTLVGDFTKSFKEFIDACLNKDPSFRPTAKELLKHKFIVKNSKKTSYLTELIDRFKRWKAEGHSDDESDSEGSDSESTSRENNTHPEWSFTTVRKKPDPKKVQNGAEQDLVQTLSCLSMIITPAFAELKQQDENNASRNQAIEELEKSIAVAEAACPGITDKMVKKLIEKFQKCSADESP
Procedure: as §1, §2, §3, §4, §5, §6

ULK1 = ULK1 (Homo sapiens, UniProt O75385)
ULK1, sequence (O75385 whole entry): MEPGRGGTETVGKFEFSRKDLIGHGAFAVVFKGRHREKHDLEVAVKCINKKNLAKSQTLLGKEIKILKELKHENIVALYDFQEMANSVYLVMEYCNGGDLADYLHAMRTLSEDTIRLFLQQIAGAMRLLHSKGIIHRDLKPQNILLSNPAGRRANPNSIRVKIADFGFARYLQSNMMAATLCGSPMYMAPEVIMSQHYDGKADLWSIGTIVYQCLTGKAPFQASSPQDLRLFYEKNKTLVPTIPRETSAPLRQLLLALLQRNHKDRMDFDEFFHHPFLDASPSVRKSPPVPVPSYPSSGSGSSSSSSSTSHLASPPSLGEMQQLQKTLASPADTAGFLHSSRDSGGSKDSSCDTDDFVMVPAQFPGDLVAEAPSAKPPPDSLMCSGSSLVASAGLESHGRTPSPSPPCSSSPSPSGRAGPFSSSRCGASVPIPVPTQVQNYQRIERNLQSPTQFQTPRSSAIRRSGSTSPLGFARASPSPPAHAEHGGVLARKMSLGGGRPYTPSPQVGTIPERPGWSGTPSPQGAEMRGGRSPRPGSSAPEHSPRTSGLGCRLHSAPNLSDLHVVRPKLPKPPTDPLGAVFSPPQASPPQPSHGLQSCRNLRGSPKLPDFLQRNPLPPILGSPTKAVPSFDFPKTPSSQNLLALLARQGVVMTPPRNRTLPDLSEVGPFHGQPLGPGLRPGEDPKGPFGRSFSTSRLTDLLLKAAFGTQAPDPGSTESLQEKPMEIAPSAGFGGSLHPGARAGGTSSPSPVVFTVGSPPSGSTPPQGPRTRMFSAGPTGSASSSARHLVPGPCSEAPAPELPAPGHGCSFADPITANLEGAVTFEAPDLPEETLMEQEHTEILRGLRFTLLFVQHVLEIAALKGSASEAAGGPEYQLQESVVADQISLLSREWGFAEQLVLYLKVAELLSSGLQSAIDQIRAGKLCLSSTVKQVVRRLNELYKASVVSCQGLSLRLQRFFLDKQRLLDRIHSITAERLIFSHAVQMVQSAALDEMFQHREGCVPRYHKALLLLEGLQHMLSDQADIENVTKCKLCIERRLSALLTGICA
Procedure: as §1, §2, §3, §4, §5, §6

FGF-R1 = FGF-R1 (Homo sapiens, UniProt P11362)
Procedure: as §1, §2, §3, §4, §5, §6

DYRK3 = DYRK3 (Homo sapiens, UniProt O43781)
Procedure: as §1, §2, §3, §4, §5, §6

HIPK1 = HIPK1 (Homo sapiens, UniProt Q86Z02)
Procedure: as §1, §2, §3, §4, §5, §6

PKCa = PKCa (Homo sapiens, UniProt P17252)
Procedure: as §1, §2, §3, §4, §5, §6

RSK2 = RSK2 (Homo sapiens, UniProt P51812)
Procedure: as §1, §2, §3, §4, §5, §6

EPH-B1 = EPH-B1 (Homo sapiens, UniProt P54762)
Procedure: as §1, §2, §3, §4, §5, §6

MKK2 = MKK2 (Homo sapiens, UniProt P36507)
MKK2, sequence (P36507 whole entry): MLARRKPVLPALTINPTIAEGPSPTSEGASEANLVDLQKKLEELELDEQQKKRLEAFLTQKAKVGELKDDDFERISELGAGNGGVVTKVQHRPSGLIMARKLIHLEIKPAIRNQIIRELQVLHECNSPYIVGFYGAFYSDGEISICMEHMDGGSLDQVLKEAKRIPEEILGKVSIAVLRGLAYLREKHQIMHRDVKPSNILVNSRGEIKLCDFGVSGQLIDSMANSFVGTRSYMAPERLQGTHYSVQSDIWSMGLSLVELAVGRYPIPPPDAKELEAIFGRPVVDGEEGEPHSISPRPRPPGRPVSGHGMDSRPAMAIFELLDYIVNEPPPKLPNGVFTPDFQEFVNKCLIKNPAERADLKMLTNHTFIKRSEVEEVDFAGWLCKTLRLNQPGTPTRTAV
Procedure: as §1, §2, §3, §4, §5, §6

PKCγ = PKCγ (Homo sapiens, UniProt P05129)
Procedure: as §1, §2, §3, §4, §5, §6

EPH-A4 = EPH-A4 (Homo sapiens, UniProt P54764)
EPH-A4, sequence (P54764 20-986): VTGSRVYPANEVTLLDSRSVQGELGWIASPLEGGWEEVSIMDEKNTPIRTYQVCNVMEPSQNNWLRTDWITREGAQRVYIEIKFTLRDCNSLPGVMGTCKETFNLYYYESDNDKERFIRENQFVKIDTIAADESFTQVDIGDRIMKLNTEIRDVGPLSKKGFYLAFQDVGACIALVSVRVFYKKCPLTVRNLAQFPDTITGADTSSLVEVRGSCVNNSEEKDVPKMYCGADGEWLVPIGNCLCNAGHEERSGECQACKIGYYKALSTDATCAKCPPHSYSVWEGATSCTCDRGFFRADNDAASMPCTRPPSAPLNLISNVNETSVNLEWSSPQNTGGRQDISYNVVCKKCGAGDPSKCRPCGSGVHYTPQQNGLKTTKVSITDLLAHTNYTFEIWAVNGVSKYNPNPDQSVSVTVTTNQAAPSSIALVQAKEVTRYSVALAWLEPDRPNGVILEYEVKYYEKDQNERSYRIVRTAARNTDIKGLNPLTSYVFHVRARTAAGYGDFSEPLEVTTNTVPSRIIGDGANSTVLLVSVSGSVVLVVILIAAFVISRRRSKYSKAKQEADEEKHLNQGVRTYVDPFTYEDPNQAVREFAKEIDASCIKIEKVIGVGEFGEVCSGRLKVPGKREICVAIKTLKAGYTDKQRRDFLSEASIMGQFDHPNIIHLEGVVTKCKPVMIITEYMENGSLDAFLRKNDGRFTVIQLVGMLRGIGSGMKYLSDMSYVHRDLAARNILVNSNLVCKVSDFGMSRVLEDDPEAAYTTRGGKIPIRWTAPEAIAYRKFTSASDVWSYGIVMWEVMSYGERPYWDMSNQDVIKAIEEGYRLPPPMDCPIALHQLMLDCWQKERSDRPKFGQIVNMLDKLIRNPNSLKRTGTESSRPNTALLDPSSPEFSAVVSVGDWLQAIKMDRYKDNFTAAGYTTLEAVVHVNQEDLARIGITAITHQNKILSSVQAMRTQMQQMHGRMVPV
Procedure: as §1, §2, §3, §4, §5, §6

MSK1 = MSK1 (Homo sapiens, UniProt O75582)
Procedure: as §1, §2, §3, §4, §5, §6

OSR1 = OSR1 (Homo sapiens, UniProt O95747)
OSR1, sequence (O95747 whole entry): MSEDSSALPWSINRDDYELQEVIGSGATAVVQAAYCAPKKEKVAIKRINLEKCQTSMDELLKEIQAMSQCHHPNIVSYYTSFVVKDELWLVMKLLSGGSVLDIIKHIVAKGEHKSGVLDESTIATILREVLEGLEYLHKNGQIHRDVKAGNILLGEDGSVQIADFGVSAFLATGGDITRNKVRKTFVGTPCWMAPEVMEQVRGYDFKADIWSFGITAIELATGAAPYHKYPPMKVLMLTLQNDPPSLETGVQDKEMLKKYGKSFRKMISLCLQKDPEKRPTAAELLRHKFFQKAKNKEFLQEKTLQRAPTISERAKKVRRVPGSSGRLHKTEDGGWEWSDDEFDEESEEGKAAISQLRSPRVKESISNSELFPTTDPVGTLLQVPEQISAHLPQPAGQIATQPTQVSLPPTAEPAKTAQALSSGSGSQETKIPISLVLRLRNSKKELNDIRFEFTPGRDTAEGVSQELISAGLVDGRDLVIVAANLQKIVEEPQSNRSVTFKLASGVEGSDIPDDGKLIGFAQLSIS
Procedure: as §1, §2, §3, §4, §5, §6

CHK1 = CHK1 (Homo sapiens, UniProt O14757)
CHK1, sequence (O14757 whole entry): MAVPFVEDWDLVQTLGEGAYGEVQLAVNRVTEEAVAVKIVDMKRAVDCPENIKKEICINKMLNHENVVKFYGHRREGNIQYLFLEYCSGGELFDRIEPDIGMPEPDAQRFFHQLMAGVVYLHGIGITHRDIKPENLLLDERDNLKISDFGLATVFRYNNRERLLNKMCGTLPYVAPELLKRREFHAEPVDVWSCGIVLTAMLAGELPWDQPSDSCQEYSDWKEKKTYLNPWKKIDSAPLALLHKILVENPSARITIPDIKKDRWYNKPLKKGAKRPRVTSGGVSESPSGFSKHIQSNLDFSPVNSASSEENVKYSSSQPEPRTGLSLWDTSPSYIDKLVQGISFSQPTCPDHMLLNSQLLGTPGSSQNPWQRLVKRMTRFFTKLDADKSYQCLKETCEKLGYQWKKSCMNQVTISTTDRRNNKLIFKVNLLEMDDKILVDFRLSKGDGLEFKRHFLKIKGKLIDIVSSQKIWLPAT
Procedure: as §1, §2, §3, §4, §5, §6

PKBb = PKBb (Homo sapiens, UniProt P31751)
Procedure: as §1, §2, §3, §4, §5, §6

EPH-B4 = EPH-B4 (Homo sapiens, UniProt P54760)
Procedure: as §1, §2, §3, §4, §5, §6

AMPK (hum) = AMPK (hum) (Homo sapiens, UniProt Q13131)
Procedure: as §1, §2, §3, §4, §5, §6

IRAK4 = IRAK4 (Homo sapiens, UniProt Q9NWZ3)
Procedure: as §1, §2, §3, §4, §5, §6

MAPKAP-K2 = MAPKAP-K2 (Homo sapiens, UniProt P49137)
Procedure: as §1, §2, §3, §4, §5, §6

MLK3 = MLK3 (Homo sapiens, UniProt Q16584)
Procedure: as §1, §2, §3, §4, §5, §6

Row | SMILES | % activity remaining (PKBa) | % activity remaining (TESK1) | % activity remaining (PLK1) | % activity remaining (TIE2) | % activity remaining (SIK3) | % activity remaining (MNK2) | % activity remaining (CAMK1) | % activity remaining (Lck) | % activity remaining (MAPKAP-K3) | % activity remaining (ABL) | % activity remaining (EIF2AK3) | % activity remaining (ERK1) | % activity remaining (TAO1) | % activity remaining (DYRK1A) | % activity remaining (S6K1) | % activity remaining (MST4) | % activity remaining (ULK1) | % activity remaining (FGF-R1) | % activity remaining (DYRK3) | % activity remaining (HIPK1) | further results
1 | Cc1cc(=O)n(C2CCCC2)c2nc(Nc3ccc(N4CC5CC(C4)N5C)cc3)ncc12 [Compound 9] | 103% | 96% | 32% | 115% | 85% | 56% | 102% | 64% | 84% | 41% | 41% | 97% | 91% | 78% | 85% | 61% | 23% | 56% | 74% | 88% | % activity remaining (PKCa): 86%; % activity remaining (RSK2): 49%; % activity remaining (EPH-B1): 51%; % activity remaining (MKK2): 94%; % activity remaining (PKCγ): 72%; % activity remaining (EPH-A4): 90%; % activity remaining (MSK1): 61%; % activity remaining (OSR1): 67%; % activity remaining (CHK1): 57%; % activity remaining (PKBb): 99%; % activity remaining (EPH-B4): 61%; % activity remaining (AMPK (hum)): 19%; % activity remaining (IRAK4): 100%; % activity remaining (MAPKAP-K2): 110%; % activity remaining (MLK3): 43%
2 | CN1C2CC1CN(c1ccc(Nc3ncc4ccn(CC5CCOCC5)c4n3)cc1)C2 [Compound 24] | 110% | 94% | 64% | 62% | 74% | 89% | 129% | 67% | 109% | 56% | 86% | 98% | 97% | 141% | 78% | 92% | 77% | 81% | 65% | 82% | % activity remaining (PKCa): 96%; % activity remaining (RSK2): 73%; % activity remaining (EPH-B1): 87%; % activity remaining (MKK2): 91%; % activity remaining (PKCγ): 81%; % activity remaining (EPH-A4): 91%; % activity remaining (MSK1): 84%; % activity remaining (OSR1): 70%; % activity remaining (CHK1): 75%; % activity remaining (PKBb): 93%; % activity remaining (EPH-B4): 86%; % activity remaining (AMPK (hum)): 81%; % activity remaining (IRAK4): 71%; % activity remaining (MAPKAP-K2): 95%; % activity remaining (MLK3): 91%
